Source: US20240199587A1, “HETEROCYCLIC COMPOUNDS” (Hoffmann-La Roche Inc., priority 2021, published 2024)

These compounds were tested against T1, MAGL (Homo sapiens, UniProt Q99685) (assay: 2-AG assay (MAGL inhibitory activity, hydrolysis of 2-arachidonoylglycerol to arachidonic acid followed by mass spectrometry)). Conditions: 8 μM 2-arachidonoylglycerol, 15 min pre-incubation, 30 min incubation at RT, RapidFire MS readout.
T1 sequence (Q99685 1-303): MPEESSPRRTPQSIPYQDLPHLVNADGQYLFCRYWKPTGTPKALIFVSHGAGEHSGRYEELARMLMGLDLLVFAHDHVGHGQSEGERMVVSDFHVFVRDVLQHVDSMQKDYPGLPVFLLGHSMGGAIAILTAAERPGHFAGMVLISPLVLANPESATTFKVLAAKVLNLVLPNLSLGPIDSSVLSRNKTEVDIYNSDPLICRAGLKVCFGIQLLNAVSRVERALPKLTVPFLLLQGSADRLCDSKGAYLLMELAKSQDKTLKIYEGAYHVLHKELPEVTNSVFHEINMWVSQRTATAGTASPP
Assay type: biochemical
Method in brief: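 Human MAGL ([…] final) pre-incubated 15 min at RT with compound in 50 mM TRIS, 1 mM EDTA, 0.01% Tween-20, 2.5% DMSO; 8 μM 2-AG then added for 30 min at RT. Acetonitrile quench with d8-arachidonic acid; arachidonic acid measured by RapidFire SPE–MS/MS, activity from arachidonic acid/d8 ratio.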

SMILES | IC50 [nM]
O=C(N1CC(OCc2ccc(S(=O)(=O)C(F)(F)F)cc2F)C1)N1CC2(CC(n3cnc(C4(O)CC4)n3)C2)C1 [Example 398, [3-[[2-fluoro-4-(trifluoromethylsulfonyl)phenyl]methoxy]azetidin-1-yl]-[6-[3-(1-hydroxycyclopropyl)-1,2,4-triazol-1-yl]-2-azaspiro[3.3]heptan-2-yl]methanone] | 34.8
O=C(N1CC(OCc2ccc(S(=O)(=O)C(F)(F)F)cc2)C1)N1CC2(CC(n3cnc(C4(O)CC4)n3)C2)C1 [Example 399, [6-[3-(1-hydroxycyclopropyl)-1,2,4-triazol-1-yl]-2-azaspiro[3.3]heptan-2-yl]-[3-[[4-(trifluoromethylsulfonyl)phenyl]methoxy]azetidin-1-yl]methanone] | 102
O=C(N1CC2(CC(Cc3ncc(F)cc3F)C2)C1)N1CC2(CC(n3cnc(C4(O)CC4)n3)C2)C1 [Example 402, [6-[(3,5-difluoro-2-pyridyl)methyl]-2-azaspiro[3.3]heptan-2-yl]-[6-[3-(1-hydroxycyclopropyl)-1,2,4-triazol-1-yl]-2-azaspiro[3.3]heptan-2-yl]methanone] | 3.91
CS(=O)(=O)c1ccc(CC2CC3(C2)CN(C(=O)N2CC4(CC(n5cnc(C6(O)CC6)n5)C4)C2)C3)c(F)c1 [Example 403, [6-[(2-fluoro-4-methylsulfonyl-phenyl)methyl]-2-azaspiro[3.3]heptan-2-yl]-[6-[3-(1-hydroxycyclopropyl)-1,2,4-triazol-1-yl]-2-azaspiro[3.3]heptan-2-yl]methanone] | 1.25
O=C(N1CC2(CC(Cc3ccc(Cl)cn3)C2)C1)N1CC2(CC(n3cnc(C4(O)CC4)n3)C2)C1 [Example 404, [6-[(5-chloro-2-pyridyl)methyl]-2-azaspiro[3.3]heptan-2-yl]-[6-[3-(1-hydroxycyclopropyl)-1,2,4-triazol-1-yl]-2-azaspiro[3.3]heptan-2-yl]methanone] | 2.33
CS(=N)(=O)c1ccc(CC2CC3(C2)CN(C(=O)N2CC4(CC(n5cnc(C6(O)CC6)n5)C4)C2)C3)cc1 (stereo not drawn) [Example 405, [6-[3-(1-hydroxycyclopropyl)-1,2,4-triazol-1-yl]-2-azaspiro[3.3]heptan-2-yl]-[6-[[4-(methylsulfonimidoyl)phenyl]methyl]-2-azaspiro[3.3]heptan-2-yl]methanone] | 169
O=C(N1CC2(CC(Cc3ccc(C(F)(F)F)cn3)C2)C1)N1CC2(CC(n3cnc(C4(O)CC4)n3)C2)C1 [Example 408, [6-[3-(1-hydroxycyclopropyl)-1,2,4-triazol-1-yl]-2-azaspiro[3.3]heptan-2-yl]-[6-[[5-(trifluoromethyl)-2-pyridyl]methyl]-2-azaspiro[3.3]heptan-2-yl]methanone] | 0.31
O=C(N1CC2(CC(Cc3ccc(C(F)(F)F)nn3)C2)C1)N1CC2(CC(n3cnc(C4(O)CC4)n3)C2)C1 [Example 409, [6-[3-(1-hydroxycyclopropyl)-1,2,4-triazol-1-yl]-2-azaspiro[3.3]heptan-2-yl]-[6-[[6-(trifluoromethyl)pyridazin-3-yl]methyl]-2-azaspiro[3.3]heptan-2-yl]methanone] | 27.5
O=C(N1CC2(CC(Cc3cnc(C(F)(F)F)nc3)C2)C1)N1CC2(CC(n3cnc(C4(O)CC4)n3)C2)C1 [Example 410, [6-[3-(1-hydroxycyclopropyl)-1,2,4-triazol-1-yl]-2-azaspiro[3.3]heptan-2-yl]-[6-[[2-(trifluoromethyl)pyrimidin-5-yl]methyl]-2-azaspiro[3.3]heptan-2-yl]methanone] | 24.9
CS(=O)(=O)c1cc(F)cc(CC2CC3(C2)CN(C(=O)N2CC4(CC(n5cnc(C6(O)CC6)n5)C4)C2)C3)c1 [Example 411, [6-[(3-fluoro-5-methylsulfonyl-phenyl)methyl]-2-azaspiro[3.3]heptan-2-yl]-[6-[3-(1-hydroxycyclopropyl)-1,2,4-triazol-1-yl]-2-azaspiro[3.3]heptan-2-yl]methanone] | 16.3
O=C(N1CC2(CC(n3cnc(C4(O)CC4)n3)C2)C1)N1CC2(CN(Cc3ccc(S(=O)(=O)C(F)(F)F)cc3)C2)C1 [Example 412, [6-[3-(1-hydroxycyclopropyl)-1,2,4-triazol-1-yl]-2-azaspiro[3.3]heptan-2-yl]-[6-[[4-(trifluoromethylsulfonyl)phenyl]methyl]-2,6-diazaspiro[3.3]heptan-2-yl]methanone] | 7.96
CS(=O)(=O)c1cc(Cl)ccc1-c1ccc(C2CN(C(=O)N3CC4(CC(n5cncn5)C4)C3)C2)cc1 [Example 413, [3-[4-(4-chloro-2-methylsulfonyl-phenyl)phenyl]azetidin-1-yl]-[6-(1,2,4-triazol-1-yl)-2-azaspiro[3.3]heptan-2-yl]methanone] | 47.8
CP(C)(=O)c1ccc(COC2CN(C(=O)N3CC4(CC(n5cnc(C(F)(F)F)n5)C4)C3)C2)cc1 [Example 414, [3-[(4-dimethyl-phosphorylphenyl)methoxy]azetidin-1-yl]-[6-[3-(trifluoromethyl)-1,2,4-triazol-1-yl]-2-azaspiro[3.3]heptan-2-yl]methanone] | 2960
CP(C)(=O)c1ccc(COC2CN(C(=O)N3CC4(CC(n5cnc(C6CC6)n5)C4)C3)C2)cc1 [Example 415, [6-(3-cyclopropyl-1,2,4-triazol-1-yl)-2-azaspiro[3.3]heptan-2-yl]-[3-[(4-dimethylphosphorylphenyl)methoxy]azetidin-1-yl]methanone] | 1060
CS(=N)(=O)c1cc(F)ccc1CC1CC2(C1)CN(C(=O)N1CC3(CC(n4cnc(C5CC5)n4)C3)C1)C2 (stereo not drawn) [Example 416, [6-(3-cyclopropyl-1,2,4-triazol-1-yl)-2-azaspiro[3.3]heptan-2-yl]-[6-[[4-fluoro-2-(methylsulfonimidoyl)phenyl]methyl]-2-azaspiro[3.3]heptan-2-yl]methanone] | 1.12
CC(C)(C)Cn1nncc1-c1ccc(C2CN(C(=O)N3CC4(CC(n5cncn5)C4)C3)C2)cc1 [Example 417, [3-[4-[3-(2,2-dimethylpropyl)triazol-4-yl]phenyl]azetidin-1-yl]-[6-(1,2,4-triazol-1-yl)-2-azaspiro[3.3]heptan-2-yl]methanone] | 359
O=C(N1CC(C23CC(c4nnc(C5(C(F)(F)F)CC5)[nH]4)(C2)C3)C1)N1CC2(CC(n3cnc(C(F)(F)F)n3)C2)C1 [Example 418, [3-[3-[5-[1-(trifluoromethyl)cyclopropyl]-4H-1,2,4-triazol-3-yl]-1-bicyclo[1.1.1]pentanyl]azetidin-1-yl]-[6-[3-(trifluoromethyl)-1,2,4-triazol-1-yl]-2-azaspiro[3.3]heptan-2-yl]methanone] | 4.75
O=C(N1CC(C23CC(c4nnc(C5(C(F)(F)F)CC5)[nH]4)(C2)C3)C1)N1CC2(CC(n3cnc(C4CC4)n3)C2)C1 [Example 419, [6-(3-cyclopropyl-1,2,4-triazol-1-yl)-2-azaspiro[3.3]heptan-2-yl]-[3-[3-[5-[1-(trifluoromethyl)cyclopropyl]-4H-1,2,4-triazol-3-yl]-1-bicyclo[1.1.1]pentanyl]azetidin-1-yl]methanone] | 2.48
O=C(N1CC(C23CC(CNC4(C(F)(F)F)CC4)(C2)C3)C1)N1CC2(CC(n3cnc(C(F)(F)F)n3)C2)C1 [Example 420, [3-[3-[[[1-(trifluoromethyl)cyclopropyl]amino]methyl]-1-bicyclo[1.1.1]pentanyl]azetidin-1-yl]-[6-[3-(trifluoromethyl)-1,2,4-triazol-1-yl]-2-azaspiro[3.3]heptan-2-yl]methanone] | 0.74
O=C(N1CC(C23CC(NCC4(C(F)(F)F)CC4)(C2)C3)C1)N1CC2(CC(n3cnc(C(F)(F)F)n3)C2)C1 [Example 421, [3-[3-[[1-(trifluoromethyl)cyclopropyl]methylamino]-1-bicyclo[1.1.1]pentanyl]azetidin-1-yl]-[6-[3-(trifluoromethyl)-1,2,4-triazol-1-yl]-2-azaspiro[3.3]heptan-2-yl]methanone] | 0.76
O=C(N1CC(c2ccc(N3CC(C(F)(F)F)C3)nc2)C1)N1CC2(CC(n3cnc(C(F)(F)F)n3)C2)C1 [Example 422, [3-[6-[3-(trifluoromethyl)azetidin-1-yl]-3-pyridyl]azetidin-1-yl]-[6-[3-(trifluoromethyl)-1,2,4-triazol-1-yl]-2-azaspiro[3.3]heptan-2-yl]methanone] | 2.81
O=C(N1CC(c2cnc(N3CC(C(F)(F)F)C3)nc2)C1)N1CC2(CC(n3cnc(C(F)(F)F)n3)C2)C1 [Example 423, [3-[2-[3-(trifluoromethyl)azetidin-1-yl]pyrimidin-5-yl]azetidin-1-yl]-[6-[3-(trifluoromethyl)-1,2,4-triazol-1-yl]-2-azaspiro[3.3]heptan-2-yl]methanone] | 38.5
O=C(N1CC(c2ccc(NCC3(C(F)(F)F)CC3)nc2)C1)N1CC2(CC(n3cnc(C(F)(F)F)n3)C2)C1 [Example 424, [3-[6-[[1-(trifluoromethyl)cyclopropyl]methylamino]-3-pyridyl]azetidin-1-yl]-[6-[3-(trifluoromethyl)-1,2,4-triazol-1-yl]-2-azaspiro[3.3]heptan-2-yl]methanone] | 0.16
CC1(Cc2nnc(-c3ccc(C4CN(C(=O)N5CC6(CC(n7cnc(C(F)(F)F)n7)C6)C5)C4)cc3)[nH]2)CC1 [Example 425, [3-[4-[5-[(1-methylcyclopropyl)methyl]-4H-1,2,4-triazol-3-yl]phenyl]azetidin-1-yl]-[6-[3-(trifluoromethyl)-1,2,4-triazol-1-yl]-2-azaspiro[3.3]heptan-2-yl]methanone] | 5.55
